From patent US8722580B2, “Agent for inhibiting cytokinin signaling” (Sumitomo Chemical Company, Limited, priority 2006, dated 2014)

What was measured:
rice [1] = assay: Root growth-promoting activity by rice seed treatment (Example 12); type: in vivo, Oriza sativa L. japonica; conditions: rice seeds treated with 10,000 ppm acetone solution; 4 days dark at 30° C. then 35 days greenhouse
Protocol: With respect to the chemical substance Ic3-1 and the chemical substance Ic7-1 (which inhibit intracellular signaling from a plant-derived cytokinin receptor of a cell) selected in Example 7, a main root-growth promoting activity induced by seed treatment was evaluated using rice (Oriza sativa L. japonica). The chemical substance was dissolved in acetone to prepare a 10,000 ppm solution. The acetone chemical substance solution (300 μl) thus prepared was put in an eppendorf tube. Then, 15 seeds were put in the eppendorf tube. The resulting mixture was mixed for about 30 seconds. The seeds thus chemical-treated were spread and dried on a filter paper.
About 820 ml of culture soil was placed in a plastic container (120 mm in length, 97 mm in height) with a hole in the bottom. The chemical-treated seeds were sowed in the plastic container (15 seeds per plastic container). The seeds were cultivated in a dark place at 30° C. for 4 days and then cultivated in a greenhouse for 35 days. Roots of the plant thus cultivated were removed and the soil adhered to the plant was washed away, followed by freeze-drying. Then, the weight of roots after freeze-drying was measured. A test was repeated 3 times for each treatment section, and an average was determined.

Arabidopsis thaliana [2] = assay: Root growth-promoting activity test (Example 9); type: in vivo; conditions: Arabidopsis thaliana, 240 h, main root length vs control section, 22° C., 10 days; for activity at 5 ppm: test final concentration 5 ppm (concentration with highest root growth rate)
Method in brief: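 Arabidopsis seeds (10–20 per tube) were grown in Enshi standard medium containing the compound from DMSO at 0.001–10 ppm final, at 22° C in light for 10 days. Main root length was averaged over eight repeats and expressed as % of the control.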

Arabidopsis thaliana [3] = assay: Root growth-promoting activity test (Example 22); type: in vivo; conditions: main root length vs control section, 22° C., 10 days
Protocol: Enshi standard medium having the following composition (see Table 18) was prepared. To cluster tubes was dispensed each 4 μl of a solution of a chemical substance in DMSO to a final concentration of 0.001 ppm to 10 ppm, and then, was dispensed each 600 μl of the sterilized Enshi standard medium. Then the resulting solution was well mixed. In each of the cluster tubes, 10-20 seeds of Arabidopsis thaliana were sown, and cultured at 22° C. for 10 days in the light. Then, the length of main roots (average main roots) generated from the seeds of Arabidopsis thaliana was measured. An average of eight repeats was determined, and a root growth rate was determined according to the following equation.
Root growth rate (%)=(Average main root length in chemical substance-treated section)/(Average main root length in control section)×100
Enshi standard medium determined having the following composition (Table 18) was prepared. A DMSO solution of a chemical substance was dispensed by 4 μl to cluster tubes to a final concentration of 0.001 ppm to 10 ppm and the sterilized Enshi standard medium was dispensed by 600 μl and then the resulting solution was well mixed. 10-20 seeds of A. thaliana per cluster tube were sown in the cluster tubes. After culture at 22° C. for 10 days in bright light, the length of main roots (average main roots) took from seeds of A. thaliana was measured. An average of eight repeats was determined and the root growth rate was determined.
Root growth rate (%)=(Average main root length of chemical substance-treated section)/(Average main root length of control section)×100

cytokinin receptor CRE1 = target: T1, cytokinin receptor CRE1 (Arabidopsis thaliana, UniProt Q9C5U0, S567G/T1018A); assay: Inhibition of intracellular signaling from plant-derived cytokinin receptor, growth of transformed yeast cell TM182-CRE1; type: cell-based; conditions: for inhibition at 2 ppm: read-out: Activity (%) of test substance for inhibiting intracellular signaling from plant-derived cytokinin receptor of cell; for Relative growth rate (%) in test section of test substance to control section, Transformed cell TM182-CRE1: 30° C., 24 hours, turbidity OD 600
T1 construct: expressed in transfected cells; host or cells: Saccharomyces cerevisiae TM182 (sln1Δ) transformed with p415CYC-CRE1
Method in brief: (§1)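 Yeast TM182-CRE1 (DOLU+Glu) or control TM182-p415CYC1 (DOLU+Gal), after 18 h preculture at 30° C and dilution to OD600=0.1, exposed to compound at 2 ppm plus trans-zeatin 0.6 ppm for 24 h at 30° C. OD600 vs DMSO control, blank-corrected; inhibition = 100 − relative growth %.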

[4] = system: transformed cell TM182-p415CYC1; assay: Control growth test with transformed yeast cell TM182-p415CYC1 (toxicity to yeast); type: cell-based; conditions: trans-zeatin 0.6 ppm; chemical substance 2 ppm; 30° C., 24 hours; turbidity OD 600
Method in brief: as §1

rice [5] = assay: Root growth-promoting activity using rice, seed growth pouch (Example 11); type: in vivo, Oriza sativa L. japonica; conditions: 25° C., 7 days
Protocol: With respect to the chemical substance Ic3-1 and the chemical substance Ic7-1 (which inhibit intracellular signaling from a plant-derived cytokinin receptor of a cell) selected in Example 7, a main root-growth promoting activity was evaluated using rice (Oriza sativa L. japonica). Aqueous solutions of the chemical substance having different concentrations (10 ppm, 25 ppm, each containing 0.1% DMSO) were prepared. A naper towel was impregnated with 17 ml of the chemical solution, wherein the heavy paper was placed in a seed growth pouch for observation of root growth (177 mm×163 mm, manufactured by Daiki Rika Kogyo Co., Ltd.), and 3 rice seeds were sowed on the paper towel. The pouch was put in a plastic container, and then sealed. After culture in the light at 25° C. for 7 days, the length of a main root was measured. An average of 3 repeats was determined and a root growth rate was determined by the following equation. Root growth rate (%)=(Average main root length in chemical substance-treated section)/(Average main root length in control section)×100−100

[6] = system: hypocotyl of Arabidopsis thaliana; assay: Plant differentiation-promoting activity, adventitious root formation from hypocotyl (Example 13); type: in vivo, Arabidopsis thaliana Columbia; conditions: agar medium with trans-zeatin 0.01 ppm; test sections with final concentration 6 ppm or 2 ppm
Protocol: With respect to the chemical substance Ic3-1 and the chemical substance Ic7-1 (which inhibit intracellular signaling from a plant-derived cytokinin receptor of a cell) selected in Example 7, a plant differentiation-promoting activity was evaluated by examining an adventitious root formation activity using an hypocotyl of Arabidopsis thaliana Columbia.
First, an agar medium for sowing Arabidopsis thaliana was prepared. The agar medium contains, as components per 1 liter of an aqueous solution, 1 parcel of mixed salts for Murashige-Scoog plant medium (Wako Pure Chemical Industries, Ltd.) for 1 liter, 10 g of sucrose, 10 ml of an aqueous 5% MES (2-(N-Morpholino)ethanesulfonic acid) solution adjusted to pH 5.7 with potassium hydroxide, 100 mg of inositol, 1 ml of vitamins stock solution (10 g of thiamine hydrochloride, 1 g of pyridoxine hydrochloride, and 1 g of nicotinic acid per 1 liter of an aqueous solution) and 8 g of agar. Then, the agar medium was subjected to autoclave at 120° C. for 20 minutes, dispensed to circular petri dishes, and then solidified.
Seeds of Arabidopsis thaliana (about 25 μl) were put in a 1.5 ml tube. Thereto was added 1 ml of a 10-fold diluted solution of a sodium hypochlorite solution (Nacalai Tesque) with sterilized distilled water. The seed were sterilized while stirring for about 1 minute with a tube mixer (TOMY, MT-360, MIXING SPEED10). […]

[7] = trans-zeatin 0.6 ppm, chemical substance 2 ppm

T1 sequence (Q9C5U0 24-1080 S567G/T1018A): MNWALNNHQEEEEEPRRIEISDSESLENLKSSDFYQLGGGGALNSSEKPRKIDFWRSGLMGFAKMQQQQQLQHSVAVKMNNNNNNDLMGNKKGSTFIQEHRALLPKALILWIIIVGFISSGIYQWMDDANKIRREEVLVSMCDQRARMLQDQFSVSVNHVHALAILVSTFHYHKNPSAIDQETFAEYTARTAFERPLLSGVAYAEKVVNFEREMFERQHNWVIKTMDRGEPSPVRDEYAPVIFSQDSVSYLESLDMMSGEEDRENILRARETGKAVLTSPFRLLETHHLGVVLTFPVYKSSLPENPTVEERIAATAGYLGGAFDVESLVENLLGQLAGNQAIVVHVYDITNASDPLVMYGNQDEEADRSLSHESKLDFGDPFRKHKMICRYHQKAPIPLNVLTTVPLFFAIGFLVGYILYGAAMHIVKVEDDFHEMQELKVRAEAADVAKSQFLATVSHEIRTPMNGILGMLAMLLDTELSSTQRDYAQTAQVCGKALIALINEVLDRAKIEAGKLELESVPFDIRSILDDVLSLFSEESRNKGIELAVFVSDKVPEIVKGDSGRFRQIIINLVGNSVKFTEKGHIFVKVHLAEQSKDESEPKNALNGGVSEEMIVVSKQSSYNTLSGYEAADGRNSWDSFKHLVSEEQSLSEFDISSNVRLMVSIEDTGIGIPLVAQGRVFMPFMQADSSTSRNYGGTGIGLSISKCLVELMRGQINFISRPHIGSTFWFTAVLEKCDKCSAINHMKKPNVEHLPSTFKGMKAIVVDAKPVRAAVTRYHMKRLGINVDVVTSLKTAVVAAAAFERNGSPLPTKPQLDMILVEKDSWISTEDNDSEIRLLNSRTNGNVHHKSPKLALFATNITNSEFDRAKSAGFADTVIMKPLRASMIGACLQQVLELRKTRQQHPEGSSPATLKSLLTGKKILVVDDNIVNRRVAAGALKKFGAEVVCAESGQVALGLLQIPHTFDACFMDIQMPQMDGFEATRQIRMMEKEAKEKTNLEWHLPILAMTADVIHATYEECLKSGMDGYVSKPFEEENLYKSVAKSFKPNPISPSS

Row | Compound | melting point [°C] | inhibition at 2 ppm (cytokinin receptor CRE1) [%] | Relative growth rate (%) in test section of test substance to control section, Transformed cell TM182-CRE1 (cytokinin receptor CRE1; [7]) [%] | Relative growth rate (%) in test section of test substance to control section, Transformed cell TM182-p415CYC1 [4] [%] | activity at 5 ppm (Arabidopsis thaliana [2]) [%] | also measured
1 | O=C(O)Cc1c[nH]c2ccccc12 [IAA, reference compound] |  |  |  |  |  | dry weight of roots per plant, % of the control section (rice [1]): 87%
2 | O=CNc1nc(-c2ccccc2)c2cc(Cl)ccc2n1 [Ic3-35, 6-chloro-2-formamido-4-phenylquinazoline] | 252.1 |  |  |  |  | activity at 10 ppm (Arabidopsis thaliana [2]; test final concentration 10 ppm (concentration with highest root growth rate)): 144%; Root growth-promoting activity (root growth rate) (Arabidopsis thaliana [3]; test final concentration 2.5 ppm (highest root growth rate)): 134.0%
3 | CN(N)c1nc(-c2ccccc2)c2cc(Cl)ccc2n1 [Ic3-27, 6-chloro-2-(1-methylhydrazino)-4-phenylquinazoline] | 155.9 | 97.7 | 2.3 | 107.4 |  | activity at 2.5 ppm (Arabidopsis thaliana [2]; test final concentration 2.5 ppm (concentration with highest root growth rate)): 128%
4 | CCOC(=O)CNc1nc(-c2ccccc2)c2cc(Cl)ccc2n1 [Ic3-33, 6-chloro-2-ethoxycarbonylmethylamino-4-phenylquinazoline] | 146.1 | 99 | 1.0 | 114.6 | 124 | Root growth-promoting activity (root growth rate) (Arabidopsis thaliana [3]; test final concentration 10 ppm (highest root growth rate)): 140.4%
5 | O=[N+]([O-])c1ccc2nc(NCCCO)nc(-c3ccccc3)c2c1 [Ic7-1] |  |  | 6.7 | 115.8 |  | Activity (%) of test substance for inhibiting intracellular signaling from plant-derived cytokinin receptor of cell (cytokinin receptor CRE1; trans-zeatin 0.6 ppm, chemical substance 2 ppm, = 100 − relative growth rate of TM182-CRE1): 93.3%; main root growth increase relative to the control section (rice [5]; 10 ppm): 17%; main root growth increase relative to the control section (rice [5]; 25 ppm): 19%; dry weight of roots per plant, % of the control section (rice [1]): 126%; adventitious root formation from the hypocotyl portion [6]: adventitious roots were formed
6 | Clc1ccc2nc(NCc3ccco3)nc(-c3ccccc3)c2c1 [Ic3-16, 6-chloro-2-furfurylamino-4-phenylquinazoline] | 142 | 96.8 | 3.2 | 97.0 | 155 | Root growth-promoting activity (root growth rate) (Arabidopsis thaliana [3]; test final concentration 5 ppm (highest root growth rate)): 155.3%
7 | OCCSc1nc(-c2ccccc2)c2cc(Cl)ccc2n1 [Ie3-1, 6-chloro-2-(2-hydroxyethylthio)-4-phenylquinazoline] | 124.4 | 97.7 | 2.3 | 110.7 | 121 | 
8 | CONc1nc(-c2ccccc2)c2cc(Cl)ccc2n1 [Ic3-32, 6-chloro-2-methoxyamino-4-phenylquinazoline] | 173.9 | 95.5 | 4.5 | 89.2 | 123 | 
